From patent US8367671B2, “Pyrazolo[3.4-B]pyrazine compounds as p38 modulators and methods of use as anti-inflamatory agents” (Amgen Inc., priority 2008, dated 2013)
pIC50: −log10 of the molar value.

Key:
human p38α = human p38α (Homo sapiens, UniProt Q16539); assay: Purified and activated recombinant human p38α HTRF kinase assay; format: biochemical; conditions: 1 nM p38α, 50 μM ATP, 100 nM GST-ATF2-Avitag, 1 hour at RT; read-out: p38a IC50
Experimental: Purified and Activated Recombinant Human p38α Aassay
Kinase Reaction Buffer: Kinase reaction buffer for p38α HTRF assays consists of 50 mM Tris-pH 7.5, 5 mM MgCl2, 0.1 mg/mL BSA, 100 μM Na3VO4 and 0.5 mM DTT.
HTRF Detection Buffer: HTRF detection buffer contains 100 mM HEPES-pH 7.5, 100 mM NaCl, 0.1% BSA, 0.05% Tween-20, and 10 mM EDTA.
Serial Dilution of Compounds: Compounds were dissolved in 100% DMSO and serially diluted (3 fold, 10 point) in a polypropylene 96-well microtiter plate (drug plate). The final starting concentration of compounds in the p38a enzymatic assays was 1 μM. Columns 6 and 12 (HI controls and LO controls respectively) in the drug plate were reserved as controls and contained only DMSO. Kinase Reaction: The p38α kinase reactions were carried out in a polypropylene 96-well black round bottom assay plate in total volume of 30 μL kinase reaction buffer. Appropriate concentration of purified and activated enzyme (recombinant human) was mixed with indicated concentration of ATP and 100 nM GST-ATF2-Avitag, in the presence or absence (HI control) of Compound. See table below for actual concentrations. In the absence of substrate, the background was measured as LO control. The reaction was allowed to incubate for 1 hour at RT. Assay Reagent Concentrations: The final reagent concentrations were 1 nM p38α and 50 μM ATP. The Km for ATP of the enzyme was 103 μM, giving a ratio of ATP concentration to Km of 0.49. […] After 60 minutes incubation at room temperature, the assay plate was read in a Discovery Plate Reader. The wells were excited with coherent 320 nm light and the ratio of delayed ([…] post excitation) emissions at […] (native europium fluorescence) and 665 nm (europium fluorescence transferred to allophycocyanin—an index of substrate phosphorylation) was determined (Park et al, 1999). Data Analysis: The proportion of substrate phosphorylated in the kinase reaction in the presence of compound compared with that phosphorylated in the presence of DMSO vehicle alone (HI control) was calculated using the formula: % control (POC)=(compound−average LO)/(average HI−average LO)*100. Data (consisting of POC and inhibitor concentration in μM) was fitted to a 4-parameter equation (y=A+((B−A)/(1+((x/C)^D))), where A is the minimum y (POC) value, B is the maximum y (POC), C is the x (compound concentration) at the point of inflection and D is the slope factor, using a Levenburg-Marquardt non-linear regression algorithm.
The inhibition constant (Ki) of the inhibitor was estimated from the IC50 (compound concentration at the point of inflection C) using the Cheng-Prussof equation: Ki=IC50/(1+S/Km), where S is the ATP substrate concentration, and Km is the Michaelis constant for ATP as determined experimentally. All results were expressed as the mean±the standard error of the mean. Data acquisition and non-linear regression algorithms were performed using Activity Base v5.2 and XL-fit software v4.1 respectively. All data was archived using Activity Base v5.2 software.

[1] = tested on: TNF-α induced IL-8 in 50% human whole blood; assay: Inhibition of TNF-α induced IL-8 in 50% human whole blood; format: cell-based; conditions: 50% human whole blood activated with 1 nM TNF-α, secreted IL-8, 16-18 hours; read-out: WB TNF/IL8 IC50
Experimental: Inhibition of TNF-α Induced IL-8 in 50% Human Whole Blood
Test compounds were evaluated in vitro for the ability to inhibit the production of secreted IL-8 by whole blood activated with TNF-α. Fresh human whole blood was obtained from healthy, non-medicated volunteers in sodium heparin tubes.
Compound Dilution—Assay Procedure
Test compounds are serially diluted 1:3 in DMSO and then diluted 1:250 into R10 (RPMI 1640, 10% human serum AB, 1× pen/strep/glutamine) to the 4× working concentration to be used in the assay. 100 ul heparinized whole blood is plated into wells of 96 well flat bottom plates. 50 ul of either 4× compound or DMSO control (Final DMSO concentration is 0.1%) are added to the appropriate wells. Plates are incubated for 1 hour at 37 degrees Celsius. 50 ul of 4× TNF-α (4 nM TNF-α, for a final concentration of 1 nM) or control (media alone) is added to the appropriate wells (Total volume=200 ul). Plates are incubated overnight (16-18 hours). 100 ul of supernatant is collected and stored in 96-well round bottom polypropylene plates at −80 degrees Celsius or assayed immediately for IL-8.
Cytokines are measured on antibody (Ab) sandwich ECL based 96-well detection plates. 20 ul of supernatant are added to plate and plate is sealed and shaken at RT for 1 hour. 130 ul of detection Ab cocktail is added and plates are sealed and shaken for 1 hour in the dark at RT. Plates are read on MSD Sector HTS instrument. Data are analyzed and IC50 values generated using Activity Base and Xl-fit programs.

human p38α, sequence (Q16539 whole entry): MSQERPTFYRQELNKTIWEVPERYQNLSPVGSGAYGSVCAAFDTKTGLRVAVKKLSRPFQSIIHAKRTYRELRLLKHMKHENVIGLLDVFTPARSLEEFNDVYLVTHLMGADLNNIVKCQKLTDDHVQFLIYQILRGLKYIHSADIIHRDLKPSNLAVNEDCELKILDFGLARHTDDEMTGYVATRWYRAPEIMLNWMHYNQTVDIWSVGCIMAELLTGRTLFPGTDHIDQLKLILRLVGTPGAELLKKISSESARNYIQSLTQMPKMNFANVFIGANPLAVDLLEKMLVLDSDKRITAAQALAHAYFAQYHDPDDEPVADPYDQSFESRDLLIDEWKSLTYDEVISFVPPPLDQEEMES

Cc1c(F)cc(C(=O)NC2CC2)cc1-c1nc2cnn(-c3c(F)cccc3F)c2n(C)c1=O [Example 1, N-Cyclopropyl-3-(1-(2,6-difluorophenyl)-7-methyl-6-oxo-6,7-dihydro-1H-pyrazolo[4,3-b]pyrazin-5-yl)-5-fluoro-4-methylbenzamide] gave a pIC50 (human p38α) of 8.74 and a pIC50 [1] of 7.97.
CCn1c(=O)c(-c2cc(C(=O)Nc3ccon3)cc(F)c2C)nc2cnn(-c3ccc(F)cc3F)c21 [Example 2, 3-(1-(2,4-Difluorophenyl)-7-ethyl-6-oxo-6,7-dihydro-1H-pyrazolo[4,3-b]pyrazin-5-yl)-5-fluoro-N-(isoxazol-3-yl)-4-methylbenzamide] showed a pIC50 (human p38α) of 8.60 and a pIC50 [1] of 8.21.
Work on Cc1ccc(C(=O)NC2CC2)cc1-c1nc2cnn(-c3c(F)cccc3F)c2n(C)c1=O [Example 3, N-cyclopropyl-3-(1-(2,6-difluorophenyl)-7-methyl-6-oxo-6,7-dihydro-1H-pyrazolo[3,4-b]pyrazin-5-yl)-4-methylbenzamide] yielded a pIC50 (human p38α) of 8.48 and a pIC50 [1] of 8.14.
In the case of Cc1ccc(C(N)=O)cc1-c1nc2cnn(-c3c(F)cccc3F)c2n(C)c1=O [Example 4, 3-(1-(2,6-difluorophenyl)-7-methyl-6-oxo-6,7-dihydro-1H-pyrazolo[3,4-b]pyrazin-5-yl)-4-methylbenzamide], the pIC50 (human p38α) was 8.07 and the pIC50 [1] was 7.39.
Compound CCn1c(=O)c(-c2cc(C(=O)NC3CC3)ccc2C)nc2cnn(-c3c(F)cccc3F)c21 [Example 5, N-cyclopropyl-3-(1-(2,6-difluorophenyl)-7-ethyl-6-oxo-6,7-dihydro-1H-pyrazolo[3,4-b]pyrazin-5-yl)-4-methylbenzamide] has a pIC50 (human p38α) of 8.85 and a pIC50 [1] of 8.24.
Cc1c(F)cc(C(=O)Nc2ccon2)cc1-c1nc2cnn(-c3c(F)cccc3F)c2n(C)c1=O [Example 6, 3-(1-(2,6-difluorophenyl)-7-methyl-6-oxo-6,7-dihydro-1H-pyrazolo[3,4-b]pyrazin-5-yl)-5-fluoro-N-3-isoxazolyl-4-methylbenzamide] was tested, and the pIC50 (human p38α) was 8.92 and the pIC50 [1] was 8.49.
With Cc1c(F)cc(C(=O)NC2CC2)cc1-c1nc2cnn(-c3ccc(F)cc3F)c2n(C)c1=O [Example 7, N-cyclopropyl-3-(1-(2,4-difluorophenyl)-7-methyl-6-oxo-6,7-dihydro-1H-pyrazolo[3,4-b]pyrazin-5-yl)-5-fluoro-4-methylbenzamide] the pIC50 (human p38α) was 7.47 and the pIC50 [1] was 7.60.
Cc1c(F)cc(C(=O)Nc2ccon2)cc1-c1nc2cnn(-c3ccc(F)cc3F)c2n(C)c1=O [Example 8, 3-(1-(2,4-difluorophenyl)-7-methyl-6-oxo-6,7-dihydro-1H-pyrazolo[3,4-b]pyrazin-5-yl)-5-fluoro-N-3-isoxazolyl-4-methylbenzamide] showed a pIC50 (human p38α) of 8.34 and a pIC50 [1] of 7.89.
For CCn1c(=O)c(-c2cc(C(=O)NC3CC3)cc(F)c2C)nc2cnn(-c3ccc(F)cc3F)c21 [Example 9, N-cyclopropyl-3-(1-(2,4-difluorophenyl)-7-ethyl-6-oxo-6,7-dihydro-1H-pyrazolo[3,4-b]pyrazin-5-yl)-5-fluoro-4-methylbenzamide], the pIC50 (human p38α) was 8.30 and the pIC50 [1] was 8.08.
With Cc1ccc(C(=O)Nc2ccon2)cc1-c1nc2cnn(-c3c(F)cccc3F)c2n(C)c1=O [Example 10, 3-(1-(2,6-difluorophenyl)-7-methyl-6-oxo-6,7-dihydro-1H-pyrazolo[3,4-b]pyrazin-5-yl)-N-3-isoxazolyl-4-methylbenzamide] the pIC50 (human p38α) was 8.00 and the pIC50 [1] was 8.43.
CCn1c(=O)c(-c2cc(C(=O)NC3CC3)cc(F)c2C)nc2cnn(-c3c(F)cccc3F)c21 [Example 11, N-cyclopropyl-3-(1-(2,6-difluorophenyl)-7-ethyl-6-oxo-6,7-dihydro-1H-pyrazolo[3,4-b]pyrazin-5-yl)-5-fluoro-4-methylbenzamide] showed a pIC50 (human p38α) of 8.64 and a pIC50 [1] of 8.52.
In the case of CCn1c(=O)c(-c2cc(C(N)=O)cc(F)c2C)nc2cnn(-c3c(F)cccc3F)c21 [Example 12, 3-(1-(2,6-difluorophenyl)-7-ethyl-6-oxo-6,7-dihydro-1H-pyrazolo[3,4-b]pyrazin-5-yl)-5-fluoro-4-methylbenzamide], the pIC50 (human p38α) was 7.66 and the pIC50 [1] was 7.64.
CCn1c(=O)c(-c2cc(C(=O)Nc3ccon3)ccc2C)nc2cnn(-c3c(F)cccc3F)c21 [Example 13, 3-(1-(2,6-difluorophenyl)-7-ethyl-6-oxo-6,7-dihydro-1H-pyrazolo[3,4-b]pyrazin-5-yl)-N-3-isoxazolyl-4-methylbenzamide] gave a pIC50 (human p38α) of 9.15 and a pIC50 [1] of 8.92.
